In patent publication US11345713B2, “Compounds as modulators of TLR2 signaling” (Neuropore Therapies, inc., priority 2018, dated 2022) one finds IC50 data, which are given here for 26 molecules.

One may read the IC50 as the concentration that gives 50% inhibition.

For assay [1], the target named is T1, human TLR2 (Pam3CSK4, TLR1/2 agonist) in HEK-Blue hTLR2 cells (Homo sapiens, UniProt O60603).
T1 construct: host or cells: HEK-Blue hTLR2 (HEK-293)
The experiment in a line: HEK-Blue hTLR2 antagonism assay (SEAP reporter) with Pam3CSK4 as agonist. It is filed as cell-based. The settings on record: 2 h compound pre-incubation, approx. 3×EC50 Pam3CSK4, 18 h, SEAP OD 655 nm, background subtracted. As for the experimental part:
(§1) Synthetic diacylated lipoprotein (Pam2CSK4, TLR2/6 agonist) and synthetic triacylated lipoprotein (Pam3CSK4, TLR1/2 agonist) were obtained from InvivoGen and were dissolved in endotoxin-free water to a concentration 1 mg/mL, vortexed until complete solubilization, and stored in aliquots at −20° C. Prior to addition to cells, an aliquot of the dissolved ligand was vortexed shortly and then was diluted in medium to 25 ng/mL Pam2CSK4 or 1000 ng/mL Pam3CSK4. The EC50 of the agonists for each assay run was determined by using 3-fold dilutions of each agonist from the following starting concentrations: 5 ng/mL for Pam2CSK4, and 200 ng/mL for Pam3CSK4.
(§2) Test compounds were solubilized fresh to 10-20 mM stocks in DMSO and sonicated for 5-10 minutes in a water bath sonicator. Serial dilutions were prepared in DMSO, and then diluted in medium. The final concentration of DMSO used in the assay was 1%.
(§3) HEK-Blue hTLR2 reporter cells (InvivoGen) are HEK-293 cells stably expressing both the human TLR2 gene and a secreted embryonic alkaline phosphatase (SEAP) reporter construct downstream of NFκB promotor sites. HEK-Blue hTLR2 reporters were cultured according to manufacturer's protocol using Dulbecco's Modified Eagle Medium (DMEM; Gibco) containing 1× GlutaMax (Gibco), 10% heat-inactivated Fetal Bovine Serum (Gibco), Pen-Strep (50 U/mL penicillin, 50 μg/mL streptomycin, Gibco), 100 μg/mL Normocin (InvivoGen), and the selective antibiotic, 1× HEK-Blue Selection (InvivoGen). Quanti-Blue reagent (InvivoGen) for detection and quantification of secreted alkaline phosphatase was dissolved in 100 mL of endotoxin-free water, warmed to 37° C. for 30 minutes and then filtered using a 0.2 μm membrane.
(§4) On day 1, 50 μL of each test compound dilution in duplicates or a vehicle control was added to each well of a 96-well plate followed by addition of 150 μL of HEK-Blue hTLR2 cell suspension (1×10^5 cells/well) and incubated at 37° C./5% CO2 for 2 h. Next, 50 μL of an approximate 3×EC50 concentration of each agonist (Pam2CSK4 or Pam3CSK4) was added to the wells containing test compounds or the vehicle control. The plates were then incubated at 37° C./5% CO2 for 18 h. For each assay run, non-treated HEK-Blue hTLR2 cells were treated with serial dilutions of agonists to determine EC50 values for the respective run.
(§5) On day 2, secreted alkaline phosphatase (SEAP) activity was detected in cell culture supernatants. In brief, 20 μL was collected from each well and transferred to a 96-well plate. Next, 200 μL of Quanti-Blue detection reagent was added to each well. Plates were incubated at room temperature for 15 min and SEAP activity was assessed by spectrophotometer OD reading at 655 nm. […] The activities of the compounds against Pam2CSK4 and Pam3CSK4 are presented as IC50 values for the response from cells treated with agonists with the background signal subtracted.

Assay [2] deals with T2, human TLR2 (Pam2CSK4, TLR2/6 agonist) in HEK-Blue hTLR2 cells (Homo sapiens, UniProt O60603).
T2 construct: host or cells: HEK-Blue hTLR2 (HEK-293)
Put plainly: HEK-Blue hTLR2 antagonism assay (SEAP reporter) with Pam2CSK4 as agonist. The assay is classed as cell-based. The note with it: 2 h compound pre-incubation, approx. 3×EC50 Pam2CSK4, 18 h, SEAP OD 655 nm, background subtracted. As for the experimental part:
as §1, §2, §3, §4, §5

T2 sequence (O60603 19-784 limits assumed): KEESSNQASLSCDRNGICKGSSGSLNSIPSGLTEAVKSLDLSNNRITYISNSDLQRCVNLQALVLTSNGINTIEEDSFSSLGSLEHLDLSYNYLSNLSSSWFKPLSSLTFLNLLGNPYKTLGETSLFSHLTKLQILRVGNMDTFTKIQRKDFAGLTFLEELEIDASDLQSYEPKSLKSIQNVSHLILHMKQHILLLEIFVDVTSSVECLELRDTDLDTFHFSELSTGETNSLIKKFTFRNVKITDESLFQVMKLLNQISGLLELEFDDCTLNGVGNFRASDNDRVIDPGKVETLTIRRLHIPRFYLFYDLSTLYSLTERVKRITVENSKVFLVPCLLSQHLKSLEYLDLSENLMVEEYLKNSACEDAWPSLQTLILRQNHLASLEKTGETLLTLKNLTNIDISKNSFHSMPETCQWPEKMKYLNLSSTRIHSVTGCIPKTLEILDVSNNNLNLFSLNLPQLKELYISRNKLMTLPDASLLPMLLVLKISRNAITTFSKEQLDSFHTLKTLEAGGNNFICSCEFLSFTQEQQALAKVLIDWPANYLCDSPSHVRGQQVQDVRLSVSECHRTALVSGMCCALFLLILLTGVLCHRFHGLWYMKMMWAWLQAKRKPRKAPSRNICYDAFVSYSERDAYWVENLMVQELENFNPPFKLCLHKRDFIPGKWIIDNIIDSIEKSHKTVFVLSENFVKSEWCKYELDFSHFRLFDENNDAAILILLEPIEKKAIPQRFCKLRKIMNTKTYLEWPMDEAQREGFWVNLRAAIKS
T1 sequence (O60603 19-784 limits assumed): as above

For the molecule `COc1ccc(/C=C/c2cc(OC)c(O)c(C(C)=O)c2)cc1` [compound 9, (E)-1-(2-hydroxy-3-methoxy-5-(4-methoxystyryl)phenyl)ethan-1-one], the IC50 in assay [1] and in assay [2] was more than 100 µM each time.

With `Oc1c(F)cc(/C=C/c2ccc(N3CCCC3)cc2)cc1/C=N/Nc1ccccc1` [compound 79, 2-fluoro-6-((E)-(2-phenylhydrazono)methyl)-4-((E)-4-(pyrrolidin-1-yl)styryl)phenol], the values for the IC50 in assay [1] and in assay [2] were 6 µM and 4.4 µM, respectively.

Turning to `COc1cc(/C=C/c2cccc(N3CCCC3)c2)cc(C=O)c1O` [compound 46, (E)-2-hydroxy-3-methoxy-5-(3-(pyrrolidin-1-yl)styryl)benzaldehyde], the IC50 in assay [1] was determined as 1 µM; in assay [2], 1.4 µM.

As for `COc1cc(-c2cc3c(s2)CCN(CCF)C3)cc(C=O)c1O` [compound 16, 5-(5-(2-fluoroethyl)-4,5,6,7-tetrahydrothieno[3,2-c]pyridin-2-yl)-2-hydroxy-3-methoxybenzaldehyde], the IC50 came to 6.9 µM in assay [1] and 5.9 µM in assay [2].

Take `COc1cc(-c2cc3c(s2)CCN(C(=O)C2CC2)C3)cc(C=O)c1O` [compound 14, 5-(5-(cyclopropanecarbonyl)-4,5,6,7-tetrahydrothieno[3,2-c]pyridin-2-yl)-2-hydroxy-3-methoxybenzaldehyde]: the figures for the IC50 in assay [1] and in assay [2] were 4.2 µM and 5.7 µM, respectively.

With `COc1cc(/C=C/c2ccc(N3CCCC3)cc2)cc(C=O)c1O` [compound 48, (E)-2-hydroxy-3-methoxy-5-(4-(pyrrolidin-1-yl)styryl)benzaldehyde], the IC50 in assay [1] stood at 0.6 µM; in assay [2], 1 µM.

As to `CCN(CC)c1ccc(/C=C/c2cc(C=O)c(O)c(OC)c2)cc1` [compound 63, (E)-5-(4-(diethylamino)styryl)-2-hydroxy-3-methoxybenzaldehyde], the IC50 in assay [1] amounted to 0.6 µM; in assay [2] it was 1.5 µM.

As to `O=Cc1cc(/C=C/c2cccc(C(F)(F)F)c2)cc(F)c1O` [compound 11, (E)-3-fluoro-2-hydroxy-5-(3-(trifluoromethyl)styryl)benzaldehyde], the IC50 in assay [1] was determined as 1 µM; in assay [2], 1.1 µM.

For the molecule `CN1CCN(/N=C/c2cc(/C=C/c3ccc(N4CCCC4)cc3)cc(F)c2O)CC1` [compound 76, 2-fluoro-6-((E)-((4-methylpiperazin-1-yl)imino)methyl)-4-((E)-4-(pyrrolidin-1-yl)styryl)phenol], the figures for the IC50 in assay [1] and in assay [2] were 0.5 µM and 0.4 µM, respectively.

Take `CCN1CCN(/N=C/c2cc(/C=C/c3ccc(N4CCCC4)cc3)cc(F)c2O)CC1` [compound 93, 2-((E)-((4-ethylpiperazin-1-yl)imino)methyl)-6-fluoro-4-((E)-4-(pyrrolidin-1-yl)styryl)phenol]: the IC50 in assay [1] came to 3.2 µM; in assay [2], 24.5 µM.

For the molecule `OCc1cc(/C=C/c2ccc(N3CCCC3)cc2)cc(F)c1O` [compound 90, (E)-2-fluoro-6-(hydroxymethyl)-4-(4-(pyrrolidin-1-yl)styryl)phenol], the IC50 in assay [1] was 8.5 µM; in assay [2], 5.4 µM.

Turning to `COc1cc(-c2cc3c(s2)CCN(C(=O)OC(C)(C)C)C3)cc(C=O)c1O` [compound 12, tert-butyl 2-(3-formyl-4-hydroxy-5-methoxyphenyl)-6,7-dihydrothieno[3,2-c]pyridine-5(4H)-carboxylate], the IC50 stood at 1.3 µM in assay [1] and 1.4 µM in assay [2].

On to `Oc1c(F)cc(/C=C/c2ccc(N3CCCC3)cc2)cc1/C=N/c1ccccc1` [compound 78, 2-fluoro-6-((E)-(phenylimino)methyl)-4-((E)-4-(pyrrolidin-1-yl)styryl)phenol], for which the IC50 in assay [1] was 0.9 µM; in assay [2], 1 µM.

As to `COc1cc(/C=C/c2ccc(N3CCOCC3)cc2)cc(C=O)c1O` [compound 40, (E)-2-hydroxy-3-methoxy-5-(4-morpholinostyryl)benzaldehyde], the IC50 was 2.5 µM in assay [1] and 2.3 µM in assay [2].

As for `CCO/N=C/c1cc(/C=C/c2ccc(N3CCCC3)cc2)cc(F)c1O` [compound 89, (E)-3-fluoro-2-hydroxy-5-((E)-4-(pyrrolidin-1-yl)styryl)benzaldehyde O-ethyl oxime], the IC50 came out at 29.6 µM in assay [1] and 29.5 µM in assay [2].

As for `CC(C)(C)OC(=O)N1CCN(/N=C/c2cc(/C=C/c3ccc(N4CCCC4)cc3)cc(F)c2O)CC1` [compound 95, tert-butyl 4-(((E)-3-fluoro-2-hydroxy-5-((E)-4-(pyrrolidin-1-yl)styryl)benzylidene)amino)piperazine-1-carboxylate], the IC50 worked out at 3.6 µM in assay [1] and 4.4 µM in assay [2].

On to `C[N+]1([O-])CCN(/N=C/c2cc(/C=C/c3ccc(N4CCCC4)cc3)cc(F)c2O)CC1` [compound 85, 4-(((E)-3-fluoro-2-hydroxy-5-((E)-4-(pyrrolidin-1-yl)styryl)benzylidene)amino)-1-methylpiperazine 1-oxide], for which the results for the IC50 in assay [1] and in assay [2] were 1.9 µM and 4.5 µM, respectively.

As to `COc1cc(/C=C/c2ccc(OCC3CC3)cc2)cc(C=O)c1O` [compound 65, (E)-5-(4-(cyclopropylmethoxy)styryl)-2-hydroxy-3-methoxybenzaldehyde], the IC50 was 0.5 µM in assay [1] and 1.7 µM in assay [2].

Regarding `COc1cc(/C=C/c2ccccc2)cc(C=O)c1O` [compound 4, (E)-2-hydroxy-3-methoxy-5-styrylbenzaldehyde], the IC50 in assay [1] worked out at 4 µM; in assay [2], 5.5 µM.

With `COc1cc(-c2cc3c(s2)CCN(C(C)=O)C3)cc(C=O)c1O` [compound 15, 5-(5-acetyl-4,5,6,7-tetrahydrothieno[3,2-c]pyridin-2-yl)-2-hydroxy-3-methoxybenzaldehyde], the IC50 was 12.6 µM in assay [1] and 14.7 µM in assay [2].

On to `COc1cc(/C=C/c2ccc3c(c2)CCCO3)cc(C=O)c1O` [compound 67, (E)-5-(2-(chroman-6-yl)vinyl)-2-hydroxy-3-methoxybenzaldehyde], for which the concentration for half-maximal inhibition (IC50) in assay [1] amounted to 1.2 µM; in assay [2], 1.7 µM.

On to `CN1CCc2sc(-c3cc(F)c(O)c(C=O)c3)cc2C1` [compound 18, 3-fluoro-2-hydroxy-5-(5-methyl-4,5,6,7-tetrahydrothieno[3,2-c]pyridin-2-yl)benzaldehyde], for which the IC50 stood at 12.2 µM in assay [1] and 10.4 µM in assay [2].

As for `COc1cc(/C=C/c2ccc(-c3ccccc3)cc2)cc(C=O)c1O` [compound 36, (E)-5-(2-([1,1′-biphenyl]-4-yl)vinyl)-2-hydroxy-3-methoxybenzaldehyde], the IC50 in assay [1] was 0.4 µM; in assay [2], 0.6 µM.

For the molecule `O=Cc1cc(/C=C\c2ccc(N3CCCC3)cc2)cc(F)c1O` [compound 50, (Z)-3-fluoro-2-hydroxy-5-(4-(pyrrolidin-1-yl)styryl)benzaldehyde], the values for the IC50 in assay [1] and in assay [2] were 6.7 µM and 10 µM, respectively.

As for `Cc1ccc(/C=C/c2ccc(O)c(C=O)c2)cn1` [compound 21, (E)-2-hydroxy-5-(2-(6-methylpyridin-3-yl)vinyl)benzaldehyde], the results for the IC50 in assay [1] and in assay [2] were 57.3 µM and 40 µM, respectively.

Take `O=Cc1cc(/C=C/c2ccccn2)cc(F)c1O` [compound 28, (E)-3-fluoro-2-hydroxy-5-(2-(pyridin-2-yl)vinyl)benzaldehyde]: the IC50 is 29.4 µM in assay [1] and 19.5 µM in assay [2].
